# Experimental data from BigSolDB 2.1.
structure (smiles),measurement,setting,value
COc1ccc2[nH]cc(CCNC(C)=O)c2c1,solubility (mole fraction),"in 2-ethoxyethanol, 278.15 K",0.0643
same,solubility (mole fraction),"in 2-ethoxyethanol, 283.15 K",0.0729
same,solubility (mole fraction),"in 2-ethoxyethanol, 288.15 K",0.0809
same,solubility (mole fraction),"in 2-ethoxyethanol, 293.15 K",0.0919
same,solubility (mole fraction),"in 2-ethoxyethanol, 298.15 K",0.103
same,solubility (mole fraction),"in 2-ethoxyethanol, 303.15 K",0.113
same,solubility (mole fraction),"in 2-ethoxyethanol, 308.15 K",0.126
same,solubility (mole fraction),"in 2-ethoxyethanol, 313.15 K",0.138
same,solubility (mole fraction),"in 2-ethoxyethanol, 318.15 K",0.152
same,solubility (mole fraction),"in 2-ethoxyethanol, 323.15 K",0.168
same,solubility (mole fraction),"in 2-methoxyethanol, 278.15 K",0.0729
same,solubility (mole fraction),"in 2-methoxyethanol, 283.15 K",0.0819
same,solubility (mole fraction),"in 2-methoxyethanol, 288.15 K",0.0921
same,solubility (mole fraction),"in 2-methoxyethanol, 293.15 K",0.103
same,solubility (mole fraction),"in 2-methoxyethanol, 298.15 K",0.115
same,solubility (mole fraction),"in 2-methoxyethanol, 303.15 K",0.129
same,solubility (mole fraction),"in 2-methoxyethanol, 308.15 K",0.142
same,solubility (mole fraction),"in 2-methoxyethanol, 313.15 K",0.159
same,solubility (mole fraction),"in 2-methoxyethanol, 318.15 K",0.173
same,solubility (mole fraction),"in 2-methoxyethanol, 323.15 K",0.191
same,solubility (mole fraction),"in DMF, 278.15 K",0.177
same,solubility (mole fraction),"in DMF, 283.15 K",0.191
same,solubility (mole fraction),"in DMF, 288.15 K",0.205
same,solubility (mole fraction),"in DMF, 293.15 K",0.221
same,solubility (mole fraction),"in DMF, 298.15 K",0.235
same,solubility (mole fraction),"in DMF, 303.15 K",0.251
same,solubility (mole fraction),"in DMF, 308.15 K",0.267
same,solubility (mole fraction),"in DMF, 313.15 K",0.285
same,solubility (mole fraction),"in DMF, 318.15 K",0.302
same,solubility (mole fraction),"in DMF, 323.15 K",0.321
